# Test results from patent US9725414B2, “Fungicidal N-bicycloalkyl and N-tricycloalkyl pyrazole-4-(thio)carboxamide derivatives” (priority 2011, dated 2017).
# Experiments:
# Sphaerotheca fuliginea [1] = experiment: Example B: in vivo preventive test on Sphaerotheca fuliginea (powdery mildew on cucurbits), gherkin plants; details: 500 ppm of active ingredient, grading 12 days after contamination
# Outline: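 Gherkin plants grown at 24 °C were sprayed with compound at the Z11 cotyledon stage; controls received acetone/tween/DMSO/water without active. 24 h later, cotyledons were inoculated by spraying with Sphaerotheca fuliginea spores (100 000 spores per mL).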
# Alternaria brassicae = experiment: Example D: in vivo preventive test on Alternaria brassicae (leaf spot on radish); details: 500 ppm of active ingredient, grading 6 days after contamination
# Outline: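 Radish plants at cotyledon stage were sprayed with compound; controls got the acetone/tween/DMSO/water mix alone. After 24 h they were inoculated with Alternaria brassicae spores (50 000 spores per mL) and kept at 20 °C, 100% relative humidity. % efficacy versus controls was graded 6 days post-inoculation.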
# Pyrenophora teres [2] = experiment: Example F: in vivo preventive test on Pyrenophora teres (barley), acetone/tween/DMSO preparation; details: 500 ppm of active ingredient, barley, grading 14 days after contamination
# Outline: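 Barley ("Plaisant") grown at 22° C was sprayed at the 1-leaf stage (10 cm) with active ingredient in acetone/tween/DMSO/water, with solvent-only controls. After 24 h, leaves were inoculated with Pyrenophora teres spores (12 000 spores per mL) from 12-day cultures. % efficacy versus controls graded 14 days post-contamination.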
# Septoria tritici [3] = experiment: Example I: in vivo preventive test on Septoria tritici (wheat), acetone/tween/DMSO preparation; details: 500 ppm of active ingredient, grading 24 days after contamination
# Outline: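 Scipion wheat grown at 22° C, sprayed at 1-leaf stage (10 cm); controls received acetone/tween/DMSO/water without active. Inoculated 24 h later with S. tritici spores (500 000/mL), held 72 h at 18° C, 100% RH, then 21 days at 90% RH. % efficacy vs controls scored 24 days post-inoculation.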
# Puccinia recondita = experiment: Example M: in vivo preventive test on Puccinia recondita (brown rust on wheat); details: 500 ppm of active ingredient, grading 12 days after contamination
# Outline: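 Wheat (Scipion) sprayed with compound at 1-leaf stage, grown at 22° C. Inoculated 24 h later with a spore suspension at 100 000 spores per mL. Efficacy (%) graded 12 days after inoculation against solvent-treated controls.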
# Botrytis cinerea [4] = experiment: Example P: in vivo preventive test on Botrytis cinerea (grey mould), gherkin plants; details: 500 ppm of active ingredient, grading 4 to 5 days after contamination
# Outline: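 Gherkin plants at Z11 cotyledon stage sprayed preventively with active ingredient, then inoculated 24 h later with B. cinerea spores (50 000/mL) in PDB/fructose nutrient solution. Incubation at 17 °C and 90% RH; % efficacy graded 4–5 days post-inoculation against solvent-treated controls.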
# Uromyces appendiculatus = experiment: Example Q: in vivo preventive test on Uromyces appendiculatus (bean rust); details: Uromyces appendiculatus on bean plants, 500 ppm of active ingredient, grading 11 days after contamination
# Outline: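 Saxa bean plants at 2-leaf stage, grown at 24° C., sprayed preventively with compound; 24 h later inoculated with U. appendiculatus spores (150 000 spores per mL). Percent efficacy graded 11 days after inoculation versus solvent-treated controls.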
# Pyricularia oryzae = assay type: in vivo; details: Pyricularia oryzae on rice plants, preventive, 500 ppm of active ingredient, grading 6 days after contamination
# [5] = log P by HPLC on reversed-phase column (C 18), EEC Directive 79831 Annex V.A8; assay type: physicochemical; details: for logP: HPLC reversed-phase C 18, 40° C., 0.1% aqueous formic acid and acetonitrile gradient, several values = mixture of two or more isomers
# Outline: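 Reversed-phase C18 HPLC at 40° C, 0.1% aqueous formic acid/acetonitrile linear gradient 10% to 90% acetonitrile, per EEC Directive 79831 Annex V.A8. log P obtained from retention time by linear interpolation between unbranched alkan-2-ones (C3-C16) of known log P.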
# Sphaerotheca fuliginea [6] = experiment: Example A: in vivo preventive test on Sphaerotheca fuliginea (cucumber); details: 500 ppm of active ingredient, evaluated 7 days after inoculation
# Protocol: In Vivo Preventive Test on Sphaerotheca fuliginea (Cucumber) Solvent: 49 parts by weight of N,N-dimethylformamide Emulsifier: 1 part by weight of alkylarylpolyglycolether To produce a suitable preparation of active compound, 1 part by weight of active compound is mixed with the stated amounts of solvent and emulsifier, and the concentrate is diluted with water to the desired concentration. To test for preventive activity, young plants are sprayed with the preparation of active compound at the stated rate of application. One day after this treatment, the plants are inoculated with an aqueous spore suspension of Sphaerotheca fuliginea. Then the plants are placed in a greenhouse at approximately 23° C. and a relative atmospheric humidity of approximately 70%.
# Alternaria solani = experiment: Example C: in vivo preventive test on Alternaria solani (tomato); details: 500 ppm of active ingredient, evaluated 7 days after inoculation
# Outline: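 Young tomato plants sprayed preventively with compound formulated in DMF/emulsifier and diluted with water, then inoculated one day later with Alternaria solani spores. Plants were held one day at about 22° C, 100% humidity, then at about 20° C, 96% humidity.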
# Pyrenophora teres [7] = experiment: Example E: in vivo preventive test on Pyrenophora teres (barley), DMF/emulsifier preparation; details: 500 ppm of active ingredient, evaluated 7-9 days after inoculation
# Outline: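 Young barley plants sprayed preventively with compound formulated in DMF/alkylaryl polyglycol ether emulsifier and diluted in water. One day later inoculated with aqueous Pyrenophora teres spore suspension, then held 48 h at 22 °C and 100% relative humidity.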
# Venturia inaequalis = experiment: Example G: in vivo preventive test on Venturia inaequalis (apple scab); details: 100 ppm of active ingredient, evaluated 10 days after inoculation
# Protocol: In Vivo Preventive Test on Venturia inaequalis (Apple Scab) Solvent: 24.5 parts by weight of acetone • 24.5 parts by weight of N,N-dimethylacetamide Emulsifier: 1 part by weight of alkylaryl polyglycol ether To produce a suitable preparation of active compound, 1 part by weight of active compound is mixed with the stated amounts of solvent and emulsifier, and the concentrate is diluted with water to the desired concentration. To test for preventive activity, young plants are sprayed with the preparation of active compound at the stated rate of application. After the spray coating has dried on, the plants are inoculated with an aqueous conidia suspension of the causal agent of apple scab (Venturia inaequalis) and then remain for 1 day in an incubation cabinet at approximately 20° C. and a relative atmospheric humidity of 100%. The plants are then placed in a greenhouse at approximately 21° C. and a relative atmospheric humidity of approximately 90%.
# Septoria tritici [8] = experiment: Example H: in vivo preventive test on Septoria tritici (wheat), N,N-dimethylacetamide/emulsifier preparation; details: 500 ppm of active ingredient, evaluated 21 days after inoculation
# Protocol: (§1) In Vivo Preventive Test on Septoria tritici (Wheat) Solvent: 49 parts by weight of N,N-dimethylacetamide Emulsifier: 1 part by weight of alkylaryl polyglycol ether To produce a suitable preparation of active compound, 1 part by weight of active compound or active compound combination is mixed with the stated amounts of solvent and emulsifier, and the concentrate is diluted with water to the desired concentration. To test for preventive activity, young plants are sprayed with the preparation of active compound or active compound combination at the stated rate of application. After the spray coating has been dried, the plants are sprayed with a spore suspension of Septoria tritici. The plants remain for 48 hours in an incubation cabinet at approximately 20° C. and a relative atmospheric humidity of approximately 100% and afterwards for 60 hours at approximately 15° C. in a translucent incubation cabinet at a relative atmospheric humidity of approximately 100%.
# [9] = system: Blumeria graminis f.sp. hordei; experiment: Example J: in vivo preventive test on Blumeria graminis (barley); details: 500 ppm of active ingredient, evaluated 7 days after inoculation
# Protocol: In Vivo Preventive Test on Blumeria graminis (Barley) Solvent: 49 parts by weight of N,N-dimethylacetamide Emulsifier: 1 part by weight of alkylaryl polyglycol ether To produce a suitable preparation of active compound, 1 part by weight of active compound or active compound combination is mixed with the stated amounts of solvent and emulsifier, and the concentrate is diluted with water to the desired concentration. To test for preventive activity, young plants are sprayed with the preparation of active compound or active compound combination at the stated rate of application. After the spray coating has been dried, the plants are dusted with spores of Blumeria graminis f.sp. hordei.
# Puccinia triticina = experiment: Example L: in vivo preventive test on Puccinia triticina (wheat); details: 500 ppm of active ingredient, evaluated 8 days after inoculation
# Protocol: In Vivo Preventive Test on Puccinia triticina (Wheat)
# Solvent: 49 parts by weight of N,N-dimethylacetamide
# (§2) Emulsifier: 1 part by weight of alkylaryl polyglycol ether
# To produce a suitable preparation of active compound, 1 part by weight of active compound or active compound combination is mixed with the stated amounts of solvent and emulsifier, and the concentrate is diluted with water to the desired concentration.
# To test for preventive activity, young plants are sprayed with the preparation of active compound or active compound combination at the stated rate of application.
# After the spray coating has been dried, the plants are sprayed with a spore suspension of Puccinia triticina.
# The plants remain for 48 hours in an incubation cabinet at approximately 20° C. and a relative atmospheric humidity of approximately 100%.
# The plants are placed in the greenhouse at a temperature of approximately 20° C. and a relative atmospheric humidity of approximately 80%.
# The test is evaluated 8 days after the inoculation. 0% means an efficacy which corresponds to that of the untreated control, while an efficacy of 100% means that no disease is observed.
# [10] = system: Fusarium nivale (var. majus); experiment: Example N: in vivo preventive test on Fusarium nivale (wheat); details: 500 ppm of active ingredient, evaluated 5 days after inoculation
# Protocol: In Vivo Preventive Test on Fusarium nivale (Wheat) Solvent: 49 parts by weight of N,N-dimethylacetamide Emulsifier: 1 part by weight of alkylaryl polyglycol ether To produce a suitable preparation of active compound, 1 part by weight of active compound or active compound combination is mixed with the stated amounts of solvent and emulsifier, and the concentrate is diluted with water to the desired concentration. To test for preventive activity, young plants are sprayed with the preparation of active compound or active compound combination at the stated rate of application. After the spray coating has been dried, the plants are slightly injured by using a sandblast and afterwards they are sprayed with a conidia suspension of Fusarium nivale (var. majus). The plants are placed in the greenhouse under a translucent incubation cabinet at a temperature of approximately 10° C. and a relative atmospheric humidity of approximately 100%.
# Botrytis cinerea [11] = experiment: Example O: in vivo protective test on Botrytis cinerea (beans); details: 100 ppm of active ingredient, lesion size 2 days after inoculation
# Protocol: In Vivo Protective Test on Botrytis cinerea (Beans)
# Solvent: 24.5 parts by weight of acetone • 24.5 parts by weight of N,N-dimethylacetamide
# as §2
# To produce a suitable preparation of active compound, 1 part by weight of active compound is mixed with the stated amounts of solvent and emulsifier, and the concentrate is diluted with water to the desired concentration.
# To test for preventive activity, young plants are sprayed with the preparation of active compound. After the spray coating has dried on, 2 small pieces of agar covered with growth of Botrytis cinerea are placed on each leaf. The inoculated plants are placed in a darkened chamber at 20° C. and a relative atmospheric humidity of 100%.
# 2 days after the inoculation, the size of the lesions on the leaves is evaluated. 0% means an efficacy which corresponds to that of the untreated control, while an efficacy of 100% means that no disease is observed.
# Leptosphaeria nodorum = experiment: Example K: in vivo preventive test on Leptosphaeria nodorum (wheat); details: 500 ppm of active ingredient, evaluated 8 days after inoculation
# Protocol: as §1, with “Leptosphaeria nodorum” for “Septoria tritici”, “Leptosphaeria nodorum.” for “Septoria tritici.”, “approximately” for “approximately 100% and afterwards for 60 hours at approximately 15° C. in a translucent incubation cabinet at a relative atmospheric humidity of approximately”
smiles,measurement,setting,value
Cn1nc(C(F)F)c(C(=O)N(C2CC2)C2CCCC3CCCCC32)c1F (mixture of isomers) [Example 31],Efficacy,Sphaerotheca fuliginea [1],100%
same,Efficacy,Alternaria brassicae,100%
same,Efficacy,Pyrenophora teres [2],97%
same,Efficacy,Septoria tritici [3],96%
same,Efficacy,Puccinia recondita,100%
same,Efficacy,Botrytis cinerea [4],100%
same,Efficacy,Uromyces appendiculatus,100%
same,Efficacy,Pyricularia oryzae,80%
Cn1nc(C(F)F)c(C(=O)NC2CCC3CCCC32)c1F (stereo not shown) [Example 2],logP,[5],2.86
same,Efficacy,Alternaria brassicae,70%
same,Efficacy,Puccinia recondita,98%
same,Efficacy,Botrytis cinerea [4],70%
same,Efficacy,Uromyces appendiculatus,98%
same,Efficacy,Pyricularia oryzae,71%
CON(C(=O)c1cn(C)nc1C(F)F)C1CCC2CCCCC21 (stereo not shown) [Example 11],logP,[5],3.50
same,Efficacy,Sphaerotheca fuliginea [1],100%
same,Efficacy,Alternaria brassicae,100%
same,Efficacy,Pyrenophora teres [2],100%
same,Efficacy,Septoria tritici [3],71%
same,Efficacy,Puccinia recondita,94%
same,Efficacy,Uromyces appendiculatus,100%
same,Efficacy,Pyricularia oryzae,92%
CC1CC(C)(C)C2CCCC(NC(=O)c3c(C(F)F)nn(C)c3F)C12 (stereo not shown) [Example 14],logP,[5],4.29
same,Efficacy,Sphaerotheca fuliginea [6],98%
same,Efficacy,Alternaria solani,100%
same,Efficacy,Pyrenophora teres [7],100%
same,Efficacy,Venturia inaequalis,99%
same,Efficacy,Septoria tritici [8],75%
same,Efficacy,[9],90%
same,Efficacy,Puccinia triticina,83%
same,Efficacy,[10],88%
same,Efficacy,Botrytis cinerea [11],100%
Cn1nc(C(F)F)c(C(=O)N(CC2(Cc3ccccc3)CC3CCC2C3)C2CC2)c1Cl (stereo not shown) [Example 68],logP,[5],5.06
same,Efficacy,Sphaerotheca fuliginea [1],98%
same,Efficacy,Septoria tritici [3],71%
same,Efficacy,Puccinia recondita,75%
same,Efficacy,Pyricularia oryzae,80%
CC(C1CC2CCC1C2)N(C(=O)c1cn(C)nc1C(F)F)C1CC1 (stereo not shown) [Example 94],logP,[5],3.52
same,Efficacy,Sphaerotheca fuliginea [6],100%
same,Efficacy,Alternaria solani,100%
same,Efficacy,Pyrenophora teres [7],100%
same,Efficacy,Venturia inaequalis,100%
same,Efficacy,Septoria tritici [8],100%
same,Efficacy,[9],89%
same,Efficacy,Leptosphaeria nodorum,80%
same,Efficacy,[10],100%
same,Efficacy,Botrytis cinerea [11],100%
"Cc1nn(C)c(F)c1C(=O)N(C1CC1)C(C)C12CC3CC(CC(C3)C1)C2 (stereo not shown) [Example 103, N-[1-(adamantan-1-yl)ethyl]-N-cyclopropyl-5-fluoro-1,3-dimethyl-1H-pyrazole-4-carboxamide]",chromatographic logP,[5],4.3
same,Efficacy,Sphaerotheca fuliginea [6],96%
same,Efficacy,Alternaria solani,100%
same,Efficacy,Pyrenophora teres [7],100%
same,Efficacy,Venturia inaequalis,100%
same,Efficacy,Septoria tritici [8],100%
same,Efficacy,Botrytis cinerea [11],99%
CC(N(C(=O)c1cn(C)nc1C(F)F)C1CC1)C12CC3CC(CC(C3)C1)C2 (stereo not shown) [Example 105],logP,[5],4.30
same,Efficacy,Sphaerotheca fuliginea [6],100%
same,Efficacy,Alternaria solani,95%
same,Efficacy,Pyrenophora teres [7],100%
same,Efficacy,Venturia inaequalis,100%
same,Efficacy,Septoria tritici [8],80%
same,Efficacy,Botrytis cinerea [11],100%
